These results are taken from patent US20240156847A1 (priority 2022, published 2024).

The subject of one data set is PRV-GFP strain. In kind it is cell-based, Pseudorabies virus.
Data set [1] has as its system PRV gE protein (PRV-HeNLH/2017 strain). The class given is cell-based, Pseudorabies virus.
The subject of another data set is PRV-HeNLH/2017 strain. In kind it is cell-based, Pseudorabies virus.

As for `O=C(O)[C@H]1O[C@@H](Oc2cc3oc(-c4ccccc4)cc(=O)c3c(O)c2O)[C@H](O)[C@@H](O)[C@@H]1O` [baicalin], in the data set with PRV-GFP strain, the “inhibition of proliferation of PRV-GFP strain (green fluorescence)” value was “inhibited the proliferation of PRV-GFP strains at the using concentrations, and the inhibitory effect was more significant at 62.5 and 125 μM”. Further, the “inhibition of expression of PRV gE protein” value in data set [1] was “significantly inhibited the expression of PRV gE protein”. In addition, the “inhibition of PRV proliferation (virus titer, TCID50)” value in the data set on PRV-HeNLH/2017 strain is given as “significantly inhibited the proliferation of PRV on PK-15 cells”. Besides, the “effect on cell viability (cytotoxicity)” value in the data set on PK-15 cells is given as “no significant effect on cell viability”.
